Measured values reported in patent US7465804B2, “Compounds, pharmaceutical compositions and methods for their use in treating metabolic disorders” (Amgen Inc., priority 2005, dated 2008).

Legend:
human GPR40 = biological target: T1, human GPR40 (Homo sapiens, UniProt O14842); test: Cell based aequorin assay using human GPR40; conditions: CHO cells stably transfected with GPR40 and aequorin; 0.01% HSA; aequorin luminescence; read-out: Relative EC50
T1 construct: host or cells: CHO cells
Description: Cell-based aequorin assays were employed to characterize the modulatory activity of compounds on the GPR40 signaling pathway. In an exemplary assay, CHO cells were stably transfected with both GPR40 and Aequorin (Euroscreen). Cells were detached from the tissue culture dish with 2 mL of trypsin (0.25% (w/v)). Trypsinization was halted with 28 mL of Hanks Buffered Salt Solution containing 20 mM Hepes (H/HBSS) and 0.01% fatty acid-free human serum albumin (HSA). Coelantrazine was added to 1 ug/mL, and the cells were incubated for 2 hours at room temperature. Compounds were dissolved in DMSO for preparation of 10 mM stock solutions. Compounds were diluted in H/HBSS containing either 0.01% HSA. Serial dilutions of the test compounds were prepared to determine dose response.
Aequorin luminescence measurements were made using an EG&G Berthold 96-well luminometer, and the response was measured over a 20 second interval after cells and compounds were mixed. The maximum relative light units was plotted to determine dose response. The EC50 (effective concentration to reach 50% maximal response) was determined from the dose response plot.
Table 1 presents representative data (EC50 values) obtained for exemplary compounds of the invention for the relative activation of human GPR40. […]

islet cells = test: Insulin secretion assay in human islet cells; assay type: cell-based; conditions: human islet cells from cadaveric donors; KRBH with 11.2 mM glucose; insulin by SPA; read-out: EC50, stimulation of insulin secretion from islet cells
Description: Human islets were isolated from cadaveric donors. Islets were treated with trypsin (0.25% (w/v) and cells were seeded in 96-well plates containing 3,000 cells per well. Cells were cultured in Roswell Park Memorial Institute (RMPI) media containing 10% fetal bovine serum.
For determination of insulin secretion, media was removed from islet cells and replaced with Krebs-Ringer bicarbonate buffer containing 10 mM HEPES (KRBH) and 2 mM glucose. After one hour incubation, media was replaced with KRBH conaining 11.2 mM glucose and test compounds. Insulin released into the medium from the islet cells was measured using scintillation proximity assay (SPA).

T1 sequence (O14842 whole entry): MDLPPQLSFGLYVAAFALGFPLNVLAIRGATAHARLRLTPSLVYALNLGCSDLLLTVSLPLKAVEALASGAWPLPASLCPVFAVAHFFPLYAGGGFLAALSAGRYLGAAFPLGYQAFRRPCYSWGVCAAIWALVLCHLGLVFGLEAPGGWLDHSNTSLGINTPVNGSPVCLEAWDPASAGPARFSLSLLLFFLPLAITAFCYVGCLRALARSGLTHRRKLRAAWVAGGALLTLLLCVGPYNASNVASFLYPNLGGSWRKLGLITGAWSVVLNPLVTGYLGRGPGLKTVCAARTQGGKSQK

Row | EC50 (human GPR40) [nM] | EC50 (islet cells) [nM] | Compound
1 | 10 to 100 | – | CCCCOc1ccc(C)cc1-c1ccc(COc2ccc([C@H](CC(=O)O)C(=O)N(C)C)cc2)cc1
2 | 10 to 100 | – | Cc1nc(-c2ccc(C(F)(F)F)cc2)sc1COc1ccc([C@H](CC(=O)O)C(=O)N(C)C)cc1
3 | 100 to 1000 | – | Cn1ccnc1C(CC(=O)O)c1ccc(OCc2cccc(-c3ccc(C(F)(F)F)cc3)c2)cc1 (centres unmarked)
4 | 100 to 1000 | – | CCCCOc1ccc(C)cc1-c1ccc(COc2ccc([C@H](CC(=O)O)c3nccn3C)cc2)cc1
5 | 100 to 1000 | – | Cn1ccnc1C(CC(=O)O)c1ccc(OCc2cccc(Oc3ccccc3)c2)cc1 (centres unmarked)
6 | 100 to 1000 | – | Cc1nc(-c2ccc(C(F)(F)F)cc2)sc1COc1ccc([C@H](CC(=O)O)c2nccn2C)cc1
7 | 100 to 1000 | – | CCOc1cccc(-c2ccc(COc3ccc([C@H](CC(=O)O)c4nccn4C)cc3)cc2)c1
8 | 10 to 100 | – | Cc1c(Cl)cccc1-c1cccc(COc2ccc([C@H](CC(=O)O)c3nccn3C)cc2)c1
9 | 10 to 100 | – | Cc1ccc(Cl)cc1-c1cccc(COc2ccc([C@H](CC(=O)O)c3nccn3C)cc2)c1
10 | 10 to 100 | – | O=C(O)CC(c1ccc(OCc2cccc(-c3ccc(C(F)(F)F)cc3)c2)cc1)c1ncco1 (centres unmarked)
11 | 10 to 100 | – | CCCCOc1ccc(C)cc1-c1ccc(COc2ccc(C(CC(=O)O)c3ncco3)cc2)cc1 (centres unmarked)
12 | 100 to 1000 | – | CCCCOc1ccc(C)cc1-c1ccc(COc2ccc([C@@H](CC(=O)O)c3ncco3)cc2)cc1
13 | 10 to 100 | – | Cc1nc(-c2ccc(C(F)(F)F)cc2)sc1COc1ccc(C(CC(=O)O)c2ncco2)cc1 (centres unmarked)
14 | 1000 to 10000 | – | CCOc1cccc(-c2ccc(COc3ccc(C(CC(=O)O)c4ncco4)cc3)cc2)c1 (centres unmarked)
15 | 100 to 1000 | – | Cc1cc(Cl)ccc1-c1cccc(COc2ccc(C(CC(=O)O)c3ncco3)cc2)c1 (centres unmarked)
16 | 100 to 1000 | – | O=C(O)CC(c1ccc(OCc2cccc(Oc3ccccc3)c2)cc1)c1ncco1 (centres unmarked)

Row | EC50 (human GPR40) [nM] | EC50 (islet cells) [nM] | Compound
17 | 10 to 100 | – | Cc1cc(Cl)ccc1-c1cccc(COc2ccc([C@H](CC(=O)O)c3ncco3)cc2)c1
18 | 1000 to 10000 | – | Cc1cc(Cl)ccc1-c1cccc(COc2ccc([C@@H](CC(=O)O)c3ncco3)cc2)c1
19 | 10 to 100 | – | CCCCOc1ccc(C)cc1-c1ccc(COc2ccc([C@H](CC(=O)O)c3ncnn3C)cc2)cc1
20 | 100 to 1000 | – | Cc1nc(-c2ccc(C(F)(F)F)cc2)sc1COc1ccc([C@H](CC(=O)O)c2ncnn2C)cc1
21 | 100 to 1000 | – | CCOc1cccc(-c2ccc(COc3ccc([C@H](CC(=O)O)c4ncnn4C)cc3)cc2)c1
22 | 10 to 100 | – | CCCCOc1ccc(C)cc1-c1ccc(COc2ccc([C@H](CC(=O)O)c3nnnn3C)cc2)cc1
23 | 10 to 100 | – | Cc1nc(-c2ccc(C(F)(F)F)cc2)sc1COc1ccc([C@H](CC(=O)O)c2nnnn2C)cc1
24 | < 10 | – | Cc1c(Cl)cccc1-c1cccc(COc2ccc([C@H](CC(=O)O)c3nnnn3C)cc2)c1
25 | 10 to 100 | – | Cc1ccc(Cl)cc1-c1cccc(COc2ccc([C@H](CC(=O)O)c3nnnn3C)cc2)c1
26 | 10 to 100 | – | Cc1cc(Cl)ccc1-c1cccc(COc2ccc([C@H](CC(=O)O)C(=O)N(C)C)cc2)c1 [Example 3, (S)-3-[4-(4′-chloro-2′-methyl-biphenyl-3-ylmethoxy)-phenyl]-N,N-dimethyl-succinamic acid]
27 | 10 to 100 | < 1000 | Cc1ccc(-c2nc(C)c(COc3ccc([C@H](CC(=O)O)C(=O)N(C)C)cc3)s2)cc1 [Example 4, (S)-4-(dimethylamino)-3-(4-((4-methyl-2-p-tolylthiazol-5-yl)methoxy)phenyl)-4-oxobutanoic acid]
28 | 100 to 1000 | – | Cn1ncnc1[C@@H](CC(=O)O)c1ccc(OCc2cccc(-c3ccc(C(F)(F)F)cc3)c2)cc1 [Example 5, (S)-3-(2-methyl-2H-1,2,4-triazol-3-yl)-3-[4-(4′-trifluoromethyl-biphenyl-3-ylmethoxy)-phenyl]-propionic acid]
29 | 10 to 100 | – | Cc1cc(Cl)ccc1-c1cccc(COc2ccc([C@H](CC(=O)O)c3ncnn3C)cc2)c1 [Example 6, (S)-3-[4-(4′-chloro-2′-methyl-biphenyl-3-ylmethoxy)-phenyl]-3-(2-methyl-2H-1,2,4-triazol-3-yl)-propionic acid]
30 | 10 to 100 | – | Cn1nnnc1[C@@H](CC(=O)O)c1ccc(OCc2cccc(-c3ccc(C(F)(F)F)cc3)c2)cc1 [Example 7, (S)-3-(1-methyl-1H-tetrazol-5-yl)-3-[4-(4′-trifluoromethyl-biphenyl-3-ylmethoxy)-phenyl]-propionic acid]
31 | 10 to 100 | – | Cc1cc(Cl)ccc1-c1cccc(COc2ccc([C@H](CC(=O)O)c3nnnn3C)cc2)c1 [Example 8, (S)-3-[4-(4′-chloro-2′-methyl-biphenyl-3-ylmethoxy)-phenyl]-3-(1-methyl-1H-tetrazol-5-yl)-propionic acid]
32 | 10 to 100 | < 1000 | Cc1cc(Cl)ccc1-c1cccc(COc2ccc([C@H](CC(=O)O)c3nccn3C)cc2)c1 [Example 9, (S)-3-[4-(4′-chloro-2′-methyl-biphenyl-3-ylmethoxy)-phenyl]-3-(1-methyl-1H-imidazol-2-yl)-propionic acid]

Row | Compound | EC50 (human GPR40) [nM] | EC50 (islet cells) [nM]
33 | CCCCOc1ccc(C)cc1-c1ccc(COc2ccc([C@H](CC(=O)O)c3ncco3)cc2)cc1 [Example 10, (S)-3-[4-(5′-methyl-2′-butoxybiphenylmethoxy)phenyl]-3-(oxazol-2-yl)propanoic acid] | 10 to 100 | –
